The values that follow come from patent US8735425B2, “Tetrahydroisoquinoline derivative” (Daiichi Sankyo Company, Limited, priority 2008, dated 2014).

One assay has as its system Male C57BL/6N mice. Put plainly: Triglyceride absorption suppression after fat loading (in vivo DGAT1 inhibitory effect). Particulars: Mus musculus, po; dose of 10 mg/kg or lower, orally administered, mice fasted overnight, plasma triglyceride after fat loading; read-out: Triglyceride absorption suppressive activity. The protocol:
The DGAT1 enzyme is important for the digestion and absorption of triglycerides, and the inhibition of DGAT1 in the small intestine suppresses the absorption of triglycerides. The in vivo activity of its DGAT1 inhibitory effect was evaluated with the suppressed absorption of triglycerides after fat loading as an index. Male C57BL/6N mice (7-12 weeks old, body weight: 17-25 g, Charles River Laboratories Japan Inc.) fasted overnight were assigned to Vehicle group 1, Vehicle group 2, and each test compound group, to which a vehicle (0.5% methylcellulose) or each test compound (1 to 10 mg/kg) suspended in vehicle was orally administered (5 mL/kg). After a given time, a lipoprotein lipase inhibitor (Pluronic-F127: Sigma-Aldrich Corp., 1 g/kg, 20% by weight dissolved in saline) was intraperitoneally administered (5 mL/kg) to each group. Immediately thereafter, distilled water for the Vehicle group 1 or a 20% fat-containing emulation (Intralipid 20%: TERUMO CORP., Japan) for the Vehicle group 2 and the compound groups were orally administered thereto (0.2 mL/mouse). After a given time of 1 to 4 hours after administration, blood was collected from the tail vein or the right ventricle, and plasma was immediately separated and collected. Then, the triglyceride concentration in plasma was measured using a commercially available kit (Triglyceride E-Test Wako: Wako Pure Chemical Industries, Ltd.). In this method, the administration of the lipoprotein lipase inhibitor suppresses the hydrolysis of triglycerides in the blood such that the triglycerides are accumulated in the blood. These triglycerides are derived from two origins: exogenous triglycerides absorbed in the gastrointestinal tract and endogenous triglycerides released from the liver. The triglyceride absorption suppressive activity of each test compound was calculated based on the equation shown below by removing the influence of the endogenous triglycerides. In this context, each test compound was separately confirmed to have no influence on the concentration of the endogenous triglycerides.
Triglyceride absorption suppressive activity (%)=100−[(Triglyceride concentration of each test compound group)−(Triglyceride concentration of Vehicle group 1)]/[(Triglyceride concentration of Vehicle group 2)−(Triglyceride concentration of Vehicle group 1)]×100

For another assay, the target named is T1, DGAT1 enzyme (Homo sapiens, UniProt O75907).
T1 construct: made in house
T1 sequence (O75907 1-488): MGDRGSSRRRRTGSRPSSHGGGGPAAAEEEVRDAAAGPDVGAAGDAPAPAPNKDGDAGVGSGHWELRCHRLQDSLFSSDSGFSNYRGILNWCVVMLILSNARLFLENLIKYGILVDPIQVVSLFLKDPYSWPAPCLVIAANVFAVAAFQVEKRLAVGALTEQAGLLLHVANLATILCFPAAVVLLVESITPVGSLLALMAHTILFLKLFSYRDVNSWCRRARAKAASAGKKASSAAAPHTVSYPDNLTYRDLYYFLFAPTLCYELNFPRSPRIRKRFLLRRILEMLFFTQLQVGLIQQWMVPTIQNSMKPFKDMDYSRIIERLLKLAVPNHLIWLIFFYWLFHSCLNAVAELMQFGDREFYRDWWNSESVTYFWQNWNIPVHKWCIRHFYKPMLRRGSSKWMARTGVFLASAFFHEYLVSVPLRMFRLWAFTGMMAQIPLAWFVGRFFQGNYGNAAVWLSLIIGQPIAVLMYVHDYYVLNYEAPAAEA
Put plainly: DGAT1 inhibitory activity test. It is filed as biochemical. Particulars: test compound concentration of 0.05 μg/ml; read-out: Inhibitory Rate. The essentials: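 Reaction at 23° C for 30 min in 175 mM Tris-HCl pH 8.0, 8 mM MgCl2, 1 mg/ml BSA, 0.5% Triton X-100 with 0.3 mM 1,2-dioleoyl-sn-glycerol and 10 μM [14C]-oleoyl-CoA. Triglyceride extracted into heptane, separated by TLC, radioactivity quantified; % inhibition versus vehicle control, 0-min background subtracted.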

SMILES strings stand for the structures.

`CCOc1ccc(C)cc1NC(=O)Nc1ccc2c(c1)CCN(C(=O)O[C@H]1CC[C@H](CC(=O)O)CC1)C2` [Example 48, trans-6-[3-(2-ethoxy-5-methyl-phenyl)-ureido]-3,4-dihydro-1H-isoquinoline-2-carboxylic acid 4-carboxymethyl-cyclohexyl ester]: the inhibition in vivo at up to 10 mg/kg in the assay on Male C57BL/6N mice is at least 60%. Also, the inhibition at 0.05 µg/mL on DGAT1 enzyme was at least 50%.
For `COc1cccc(NC(=O)Nc2ccc3c(c2)CCN(C(=O)O[C@H]2CC[C@H](CC(=O)O)CC2)C3)c1` [Example 49, trans-6-[3-(3-methoxy-phenyl)-ureido]-3,4-dihydro-1H-isoquinoline-2-carboxylic acid 4-carboxymethyl-cyclohexyl ester] the same measures were at least 60% and at least 50%.
For the compound `O=C(O)C[C@H]1CC[C@H](OC(=O)N2CCc3cc(NC(=O)Nc4ccccc4)ccc3C2)CC1` [Example 50, trans-6-(3-phenyl-ureido)-3,4-dihydro-1H-isoquinoline-2-carboxylic acid 4-carboxymethyl-cyclohexyl ester], the inhibition in vivo at up to 10 mg/kg in the assay on Male C57BL/6N mice was at least 60%. Further, the inhibition at 0.05 µg/mL at DGAT1 enzyme was at least 50%.
For the compound `O=C(O)C[C@H]1CC[C@H](OC(=O)N2CCc3cc(NC(=O)Nc4cccc(OC(F)F)c4)ccc3C2)CC1` [Example 51, trans-6-[3-(3-difluoromethoxy-phenyl)-ureido]-3,4-dihydro-1H-isoquinoline-2-carboxylic acid 4-carboxymethyl-cyclohexyl ester], in the assay on Male C57BL/6N mice, the inhibition in vivo at up to 10 mg/kg is at least 60%. On DGAT1 enzyme, the inhibition at 0.05 µg/mL is at least 50%.
For `O=C(O)C[C@H]1CC[C@H](OC(=O)N2CCc3cc(NC(=O)Nc4cccc(OC(F)(F)F)c4)ccc3C2)CC1` [Example 52, trans-6-[3-(3-trifluoromethoxy-phenyl)-ureido]-3,4-dihydro-1H-isoquinoline-2-carboxylic acid 4-carboxymethyl-cyclohexyl ester], the inhibition in vivo at up to 10 mg/kg with Male C57BL/6N mice was at least 60%. Also, the inhibition at 0.05 µg/mL on DGAT1 enzyme was at least 50%.
For `CCOc1cccc(NC(=O)Nc2ccc3c(c2)CCN(C(=O)O[C@H]2CC[C@H](CC(=O)O)CC2)C3)c1C` [Example 53, trans-6-[3-(3-ethoxy-2-methyl-phenyl)-ureido]-3,4-dihydro-1H-isoquinoline-2-carboxylic acid 4-carboxymethyl-cyclohexyl ester] the same measures were at least 60% and at least 50%.
For `CCOc1cc(NC(=O)Nc2ccc3c(c2)CCN(C(=O)O[C@H]2CC[C@H](CC(=O)O)CC2)C3)ccc1C` [Example 54, trans-6-[3-(3-ethoxy-4-methyl-phenyl)-ureido]-3,4-dihydro-1H-isoquinoline-2-carboxylic acid 4-carboxymethyl-cyclohexyl ester] the same measures were at least 60% and at least 50%.
As to `CCOc1ccc(C)c(NC(=O)Nc2ccc3c(c2)CCN(C(=O)O[C@H]2CC[C@H](CC(=O)O)CC2)C3)c1` [Example 55, trans-6-[3-(5-ethoxy-2-methyl-phenyl)-ureido]-3,4-dihydro-1H-isoquinoline-2-carboxylic acid 4-carboxymethyl-cyclohexyl ester], the inhibition in vivo at up to 10 mg/kg in the assay on Male C57BL/6N mice is at least 60%. Further, on DGAT1 enzyme, the inhibition at 0.05 µg/mL was at least 50%.
On the same counts, the results for `COc1cc(F)cc(NC(=O)Nc2ccc3c(c2)CCN(C(=O)O[C@H]2CC[C@H](CC(=O)O)CC2)C3)c1` [Example 56, trans-6-[3-(3-fluoro-5-methoxy-phenyl)-ureido]-3,4-dihydro-1H-isoquinoline-2-carboxylic acid 4-carboxymethyl-cyclohexyl ester] are at least 60% and at least 50%.
On the same counts, the results for `O=C(O)C[C@H]1CC[C@H](OC(=O)N2CCc3cc(NC(=O)Nc4ccc(F)c(F)c4)ccc3C2)CC1` [Example 57, trans-6-[3-(3,4-difluoro-phenyl)-ureido]-3,4-dihydro-1H-isoquinoline-2-carboxylic acid 4-carboxymethyl-cyclohexyl ester] are at least 60% and at least 50%.
